Results taken from article PMC9865890, “N-Derivatives of (Z)-Methyl 3-(4-Oxo-2-thioxothiazolidin-5-ylidene)methyl)-1H-indole-2-carboxylates as Antimicrobial Agents—In Silico and In Vitro Evaluation” (Pharmaceuticals, 2023).
Values after ≈ are worked out from the molar mass of the structure shown. Where two headings read alike, the source gives them in different places.

Assays:
[1] = tested on: Bacillus cereus (clinical isolate); test: Antibacterial microdilution (MIC/MBC); type: cell-based; details: B.c. (B. cereus)
Procedure, shortened: (§1)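 MIC and MBC values came from a modified broth microdilution method, with ampicillin and streptomycin run alongside as reference drugs.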

[2] = tested on: Enterobacter cloacae (clinical isolate); test: Antibacterial microdilution (MIC/MBC); type: cell-based; details: En.cl (En. cloacae)
Procedure, shortened: as §1

[3] = tested on: Escherichia coli (ATCC 35210); test: Antibacterial microdilution (MIC/MBC); type: cell-based; details: E. coli
Procedure, shortened: as §1

[4] = tested on: Listeria monocytogenes (NCTC 7973); test: Antibacterial microdilution (MIC/MBC); type: cell-based; details: Listeria monocytogenes, NCTC7973, L.m. (L. monocytogenes)
Procedure, shortened: as §1

[5] = tested on: M. flavus; test: Antibacterial microdilution (MIC/MBC); type: cell-based; details: Micrococcus flavus; M.f. (M. flavus)
Procedure, shortened: as §1

[6] = tested on: P. aeruginosa; test: Antibacterial microdilution (MIC/MBC); type: cell-based; details: P.a. (P. aeruginosa)
Procedure, shortened: as §1

[7] = tested on: Salmonella typhimurium (ATCC 13311); test: Antibacterial microdilution (MIC/MBC); type: cell-based; details: S.t. (S. typhimurium)
Procedure, shortened: as §1

[8] = tested on: Staphylococcus aureus (ATCC 6538); test: Antibacterial microdilution (MIC/MBC); type: cell-based; details: Staphylococcus aureus, ATCC6538, S.a. (S. aureus)
Procedure, shortened: as §1

[9] = tested on: A. ochraceus; test: Antifungal bioassay (MIC/MFC); type: cell-based; details: A.o. (A. ochraceus)
Procedure, shortened: (§2)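 In duplicate: all strains tested this way.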

[10] = tested on: Aspergillus fumigatus (ATCC 1022); test: Antifungal bioassay (MIC/MFC); type: cell-based; details: ATCC1022, A.f. (A. fumigatus)
Procedure, shortened: as §2

[11] = tested on: Aspergillus niger (ATCC 6275); test: Antifungal bioassay (MIC/MFC); type: cell-based; details: ATCC6275, A.n. (A. niger)
Procedure, shortened: as §2

[12] = tested on: Aspergillus versicolor (ATCC 11730); test: Antifungal bioassay (MIC/MFC); type: cell-based; details: ATCC11730, A.v. (A. versicolor)
Procedure, shortened: as §2

[13] = tested on: P. ochrochloron; test: Antifungal bioassay (MIC/MFC); type: cell-based; details: Penicillium ochrochloron
Procedure, shortened: as §2

[14] = tested on: Penicillium funiculosum (ATCC 36839); test: Antifungal bioassay (MIC/MFC); type: cell-based; details: Talaromyces funiculosus, ATCC36839; P.f. (P. funiculosum)
Procedure, shortened: as §2

[15] = tested on: Trichoderma viride (IAM 5061); test: Antifungal bioassay (MIC/MFC); type: cell-based; details: T.v. (T. viride)
Procedure, shortened: as §2

[16] = tested on: Penicillium verrucosum var. cyclopium (food isolate); test: Antifungal bioassay (MIC/MFC); type: cell-based
[17] = in vitro; type: cell-based; details: human
Method: To evaluate cytotoxicity, compounds 1, 2, 8, and 11 were chosen to be tested in the human normal fetal lung fibroblast MRC-5 cell line within the following range of three concentrations for each substance: 1 × 10^−7 M (0.1 μM), 1 × 10^−6 Μ (1 μM), and 1 × 10^−5 M (10 μΜ). […] More specifically, under this exposure to compound 11, the cellular viability was measured to the level of 91.0%.
The normal human fetal lung fibroblast MRC-5 cell line was maintained and used in our laboratory (Dr. I.s.Vizirianakis, Laboratory of Pharmacology, School of Pharmacy, Aristotle University of Thessaloniki, Greece) (passage 15 < 40), as previously published. Cells were grown in culture under the following conditions: 37 °C, humidified atmosphere containing 5% v/v CO2, in DMEM (Dulbecco’s modified Eagle Medium) enriched with 10% FBS and 1% PS. The compounds tested were dissolved in DMSO and stored at 4 °C. […] After the incubation, the OD for each well was determined at 450 nm in a multifunction microplate reader. […] Statistical t-test and one-way analysis of variance (ANOVA) were performed via the use of the SPSS program and the significance level was determined at p < 0.05.

## COC(=O)c1[nH]c2ccccc2c1/C=C1\SC(=S)N(CC(=O)O)C1=O [Compound 11, (Z)-2-(5-((2-(methoxycarbonyl)-1H-indol-3-yl)methylene)-4-oxo-2-thioxothiazolidin-3-yl)acetic acid]
[1]
  MIC: 8 ± 0.6 µg/mL (≈ 21.3 µM)
[1]; Bacillus cereus
  MBC: 15 ± 9 µg/mL (≈ 39.8 µM)
[1]; Bacillus cereus, read-out: MIC
  MIC: 8 µg/mL (≈ 21.3 µM)
[2]
  MIC: 11 ± 10 µg/mL (≈ 29.2 µM)
[2]; Enterobacter cloacae
  MBC: 30 ± 10 µg/mL (≈ 79.7 µM)
[2]; Enterobacter cloacae, read-out: MIC
  MIC: 11 µg/mL (≈ 29.2 µM)
[3]
  MIC: 15 ± 9 µg/mL (≈ 39.8 µM)
[3]; Escherichia coli, ATCC35210
  MBC: 30 ± 10 µg/mL (≈ 79.7 µM)
[3]; Escherichia coli, ATCC35210, read-out: MIC
  MIC: 15 µg/mL (≈ 39.8 µM)
[4]
  MBC: 60 ± 6 µg/mL (≈ 159 µM)
[4]; read-out: MIC
  MIC: 30 ± 10 µg/mL (≈ 79.7 µM)
[5]
  MBC: 60 ± 6 µg/mL (≈ 159 µM)
  MIC: 30 ± 10 µg/mL (≈ 79.7 µM)
[6]
  MIC: 11 ± 10 µg/mL (≈ 29.2 µM)
[6]; Pseudomonas aeruginosa
  MBC: 30 ± 10 µg/mL (≈ 79.7 µM)
[6]; Pseudomonas aeruginosa, read-out: MIC
  MIC: 11 µg/mL (≈ 29.2 µM)
[7]
  MIC: 15 ± 9 µg/mL (≈ 39.8 µM)
[7]; Salmonella enterica
  MBC: 30 ± 10 µg/mL (≈ 79.7 µM)
[7]; Salmonella enterica, read-out: MIC
  MIC: 15 µg/mL (≈ 39.8 µM)
[8]
  MBC: 15 ± 9 µg/mL (≈ 39.8 µM)
[8]; read-out: MIC
  MIC: 8 ± 0.6 µg/mL (≈ 21.3 µM)
[9]
  MIC: 8 ± 0.6 µg/mL (≈ 21.3 µM)
[9]; Aspergillus ochraceus
  MFC: 15 ± 3 µg/mL (≈ 39.8 µM)
[9]; Aspergillus ochraceus, read-out: MIC
  MIC: 8 µg/mL (≈ 21.3 µM)
[10]
  MFC: 120 ± 40 µg/mL (≈ 319 µM)
  MIC: 60 ± 6 µg/mL (≈ 159 µM)
[11]
  MFC: 30 ± 10 µg/mL (≈ 79.7 µM)
  MIC: 15 ± 3 µg/mL (≈ 39.8 µM)
[12]
  MFC: 30 ± 10 µg/mL (≈ 79.7 µM)
  MIC: 15 ± 3 µg/mL (≈ 39.8 µM)
[13]; P.o. (P. ochrochloron)
  MFC: 30 ± 10 µg/mL (≈ 79.7 µM)
[13]; P.o. (P. ochrochloron; text: P. ochramensis), read-out: MIC
  MIC: 15 ± 3 µg/mL (≈ 39.8 µM)
[14]
  MFC: 30 ± 10 µg/mL (≈ 79.7 µM)
  MIC: 15 ± 3 µg/mL (≈ 39.8 µM)
[15]
  MIC: 8 ± 0.6 µg/mL (≈ 21.3 µM)
[15]; Trichoderma viride, IAM5061
  MFC: 15 ± 3 µg/mL (≈ 39.8 µM)
[15]; Trichoderma viride, IAM5061, read-out: MIC
  MIC: 8 µg/mL (≈ 21.3 µM)
[16]
  MFC: 30 ± 10 µg/mL (≈ 79.7 µM)
  MIC: 15 ± 3 µg/mL (≈ 39.8 µM)
[17]
  viability at 48 h, 1 µM: 91%
  viability at 48 h, 10 µM: 91%
other
  melting point: 292 to 294 °C
